Assay results published in PubChem BioAssay (NCI).
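Each compound was tested at five concentrations against cells in 96-well plates for 48 hours. GI50 is the concentration that inhibits growth by half. TGI marks complete inhibition of growth.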

Experiments:
Experiment in all cases: growth of human tumour cells (NCI), 48 h
CAKI-1 renal = system: CAKI-1 renal
CCRF-CEM leukemia = system: CCRF-CEM leukemia
DU-145 prostate = system: DU-145 prostate
HCT-116 colon = system: HCT-116 colon
HCT-15 colon = system: HCT-15 colon
HS 578T breast = system: HS 578T breast
K-562 leukemia = system: K-562 leukemia
MALME-3M melanoma = system: MALME-3M melanoma
MCF7 breast = system: MCF7 breast
MDA-MB-231 breast = system: MDA-MB-231 breast
MOLT-4 leukemia = system: MOLT-4 leukemia
NCI/ADR-RES ovarian = system: NCI/ADR-RES ovarian
OVCAR-3 ovarian = system: OVCAR-3 ovarian
OVCAR-4 ovarian = system: OVCAR-4 ovarian
OVCAR-5 ovarian = system: OVCAR-5 ovarian
OVCAR-8 ovarian = system: OVCAR-8 ovarian
PC-3 prostate = system: PC-3 prostate
RPMI-8226 leukemia = system: RPMI-8226 leukemia
SF-268 CNS = system: SF-268 CNS
SF-539 CNS = system: SF-539 CNS
SNB-75 CNS = system: SNB-75 CNS
SR leukemia = system: SR leukemia
SW-620 colon = system: SW-620 colon
T-47D breast = system: T-47D breast
TK-10 renal = system: TK-10 renal
A498 renal = system: A498 renal
A549 NSCLC = system: A549 NSCLC
ACHN renal = system: ACHN renal
COLO 205 colon = system: COLO 205 colon
EKVX NSCLC = system: EKVX NSCLC
HCC-2998 colon = system: HCC-2998 colon
HL-60(TB) leukemia = system: HL-60(TB) leukemia
HOP-62 NSCLC = system: HOP-62 NSCLC
HOP-92 NSCLC = system: HOP-92 NSCLC
HT29 colon = system: HT29 colon
IGROV1 ovarian = system: IGROV1 ovarian
KM12 colon = system: KM12 colon
LOX IMVI melanoma = system: LOX IMVI melanoma
M14 melanoma = system: M14 melanoma
MDA-MB-435 = system: MDA-MB-435
NCI-H226 lung = system: NCI-H226 lung
NCI-H23 lung = system: NCI-H23 lung
NCI-H460 lung = system: NCI-H460 lung
NCI-H522 lung = system: NCI-H522 lung
RXF 393 renal = system: RXF 393 renal
SF-295 CNS = system: SF-295 CNS
SK-MEL-2 melanoma = system: SK-MEL-2 melanoma
SK-MEL-28 melanoma = system: SK-MEL-28 melanoma
SK-MEL-5 melanoma = system: SK-MEL-5 melanoma
SN12C renal = system: SN12C renal
SNB-19 CNS = system: SNB-19 CNS
U251 CNS = system: U251 CNS
UACC-257 melanoma = system: UACC-257 melanoma
UACC-62 melanoma = system: UACC-62 melanoma
UO-31 renal = system: UO-31 renal

COc1cc(/C=C2\CCCC3=C2NC(C)=NC3c2cc(OC)c(OC)c(OC)c2)cc(OC)c1OC (stereo unspecified)
GI50 (CAKI-1 renal): 2.61 µM | TGI (CAKI-1 renal): 22.9 µM | GI50 (CCRF-CEM leukemia): 0.838 µM | TGI (CCRF-CEM leukemia): > 100 µM | GI50 (DU-145 prostate): 1.53 µM | TGI (DU-145 prostate): > 100 µM | GI50 (HCT-116 colon): 0.46 µM | TGI (HCT-116 colon): 1.76 µM | GI50 (HCT-15 colon): 1.03 µM | TGI (HCT-15 colon): > 100 µM | GI50 (HS 578T breast): 5.16 µM | TGI (HS 578T breast): > 100 µM | GI50 (K-562 leukemia): 0.917 µM | TGI (K-562 leukemia): > 100 µM | GI50 (MALME-3M melanoma): 1.6 µM | TGI (MALME-3M melanoma): 4.76 µM | GI50 (MCF7 breast): 1.45 µM | TGI (MCF7 breast): > 100 µM | GI50 (MDA-MB-231 breast): 3.01 µM | TGI (MDA-MB-231 breast): > 100 µM | GI50 (MOLT-4 leukemia): 1.93 µM | TGI (MOLT-4 leukemia): > 100 µM | GI50 (NCI/ADR-RES ovarian): 0.505 µM | TGI (NCI/ADR-RES ovarian): > 100 µM | GI50 (OVCAR-3 ovarian): 2.65 µM | TGI (OVCAR-3 ovarian): > 100 µM | GI50 (OVCAR-4 ovarian): 2.39 µM | TGI (OVCAR-4 ovarian): > 100 µM | GI50 (OVCAR-5 ovarian): 3.54 µM | TGI (OVCAR-5 ovarian): > 100 µM | GI50 (OVCAR-8 ovarian): 0.372 µM | TGI (OVCAR-8 ovarian): > 100 µM | GI50 (PC-3 prostate): 2.05 µM | TGI (PC-3 prostate): > 100 µM | GI50 (RPMI-8226 leukemia): 0.536 µM | TGI (RPMI-8226 leukemia): 4.67 µM | GI50 (SF-268 CNS): 1.88 µM | TGI (SF-268 CNS): > 100 µM | GI50 (SF-539 CNS): 1.55 µM | TGI (SF-539 CNS): > 100 µM | GI50 (SNB-75 CNS): > 100 µM | TGI (SNB-75 CNS): > 100 µM | GI50 (SR leukemia): 0.436 µM | TGI (SR leukemia): 7.66 µM | GI50 (SW-620 colon): 1.45 µM | TGI (SW-620 colon): > 100 µM | GI50 (T-47D breast): 3.25 µM | TGI (T-47D breast): > 100 µM | GI50 (TK-10 renal): 4.33 µM | TGI (TK-10 renal): > 100 µM

O=S1(=O)N(CCNc2nccc(-c3c(-c4cccc(O)c4)nc4sccn34)n2)CCN1Cc1ccccc1
GI50 (A498 renal): 1.78 µM | TGI (A498 renal): 4.35 µM | GI50 (A549 NSCLC): 12.5 µM | TGI (A549 NSCLC): > 50 µM | GI50 (ACHN renal): 3.83 µM | TGI (ACHN renal): 48.2 µM | GI50 (CAKI-1 renal): 4.4 µM | TGI (CAKI-1 renal): 17.8 µM | GI50 (CCRF-CEM leukemia): 2.26 µM | TGI (CCRF-CEM leukemia): 30.9 µM | GI50 (COLO 205 colon): 0.621 µM | TGI (COLO 205 colon): 32.3 µM | GI50 (DU-145 prostate): 8.1 µM | TGI (DU-145 prostate): 26.1 µM | GI50 (EKVX NSCLC): 26.8 µM | TGI (EKVX NSCLC): > 50 µM | GI50 (HCC-2998 colon): 14.2 µM | TGI (HCC-2998 colon): 39.8 µM | GI50 (HCT-116 colon): 5.56 µM | TGI (HCT-116 colon): 19.4 µM | GI50 (HCT-15 colon): 6.05 µM | TGI (HCT-15 colon): 20.9 µM | GI50 (HL-60(TB) leukemia): 8.4 µM | TGI (HL-60(TB) leukemia): 20.1 µM | GI50 (HOP-62 NSCLC): 24.6 µM | TGI (HOP-62 NSCLC): > 50 µM | GI50 (HOP-92 NSCLC): 12.9 µM | TGI (HOP-92 NSCLC): > 50 µM | GI50 (HS 578T breast): 2.78 µM | TGI (HS 578T breast): 16.6 µM | GI50 (HT29 colon): 2.57 µM | TGI (HT29 colon): 36.4 µM | GI50 (IGROV1 ovarian): 6.65 µM | TGI (IGROV1 ovarian): 43.6 µM | GI50 (K-562 leukemia): 3.44 µM | TGI (K-562 leukemia): > 50 µM | GI50 (KM12 colon): 5.44 µM | TGI (KM12 colon): 15.3 µM | GI50 (LOX IMVI melanoma): 2.57 µM | TGI (LOX IMVI melanoma): 16.2 µM | GI50 (M14 melanoma): 0.461 µM | TGI (M14 melanoma): 27.7 µM | GI50 (MALME-3M melanoma): 0.108 µM | TGI (MALME-3M melanoma): > 50 µM | GI50 (MCF7 breast): 4.22 µM | TGI (MCF7 breast): 34.6 µM | GI50 (MDA-MB-231 breast): 3.06 µM | TGI (MDA-MB-231 breast): 26.4 µM | GI50 (MDA-MB-435): 1.23 µM | TGI (MDA-MB-435): > 50 µM | GI50 (MOLT-4 leukemia): 7.84 µM | TGI (MOLT-4 leukemia): 40.3 µM | GI50 (NCI-H226 lung): 7.45 µM | TGI (NCI-H226 lung): 20.8 µM | GI50 (NCI-H23 lung): 7.19 µM | TGI (NCI-H23 lung): 27.7 µM | GI50 (NCI-H460 lung): 3.45 µM | TGI (NCI-H460 lung): 17.1 µM | GI50 (NCI-H522 lung): 2.98 µM | TGI (NCI-H522 lung): 14.9 µM | GI50 (NCI/ADR-RES ovarian): 14.1 µM | TGI (NCI/ADR-RES ovarian): > 50 µM | GI50 (OVCAR-3 ovarian): 6.23 µM | TGI (OVCAR-3 ovarian): > 50 µM | GI50 (OVCAR-4 ovarian): 13.6 µM | TGI (OVCAR-4 ovarian): > 50 µM | GI50 (OVCAR-5 ovarian): 29.8 µM | TGI (OVCAR-5 ovarian): > 50 µM | GI50 (OVCAR-8 ovarian): 4.88 µM | TGI (OVCAR-8 ovarian): > 50 µM | GI50 (PC-3 prostate): 5.66 µM | TGI (PC-3 prostate): > 50 µM | GI50 (RPMI-8226 leukemia): 4.41 µM | TGI (RPMI-8226 leukemia): 14.3 µM | GI50 (RXF 393 renal): 0.982 µM | TGI (RXF 393 renal): 9.37 µM | GI50 (SF-268 CNS): 15.3 µM | TGI (SF-268 CNS): > 50 µM | GI50 (SF-295 CNS): 7.57 µM | TGI (SF-295 CNS): 20.3 µM | GI50 (SF-539 CNS): 7.14 µM | TGI (SF-539 CNS): > 50 µM | GI50 (SK-MEL-2 melanoma): 1.55 µM | TGI (SK-MEL-2 melanoma): 4.59 µM | GI50 (SK-MEL-28 melanoma): 0.417 µM | TGI (SK-MEL-28 melanoma): > 50 µM | GI50 (SK-MEL-5 melanoma): 3.04 µM | TGI (SK-MEL-5 melanoma): 9.79 µM | GI50 (SN12C renal): 9.5 µM | TGI (SN12C renal): > 50 µM | GI50 (SNB-19 CNS): 36.4 µM | TGI (SNB-19 CNS): > 50 µM | GI50 (SNB-75 CNS): 9.38 µM | TGI (SNB-75 CNS): > 50 µM | GI50 (SR leukemia): 9.76 µM | TGI (SR leukemia): > 50 µM | GI50 (SW-620 colon): 7.87 µM | TGI (SW-620 colon): > 50 µM | GI50 (T-47D breast): 5.16 µM | TGI (T-47D breast): 27 µM | GI50 (TK-10 renal): 4.07 µM | TGI (TK-10 renal): 29.2 µM | GI50 (U251 CNS): 8.21 µM | TGI (U251 CNS): > 50 µM | GI50 (UACC-257 melanoma): 0.996 µM | TGI (UACC-257 melanoma): 43.1 µM | GI50 (UACC-62 melanoma): 0.136 µM | TGI (UACC-62 melanoma): 5.29 µM | GI50 (UO-31 renal): 3.01 µM | TGI (UO-31 renal): 39.3 µM

C[C@H](C(=O)N[C@@H](Cc1ccc(-c2ccccc2)cc1)C(=O)NC1CC(C)(C)NC(C)(C)C1)c1ccc(-c2ccccc2)c(F)c1
GI50 (DU-145 prostate): 0.377 µM | TGI (DU-145 prostate): 1.54 µM | GI50 (HCC-2998 colon): 0.813 µM | TGI (HCC-2998 colon): > 100 µM | GI50 (NCI/ADR-RES ovarian): 1.88 µM | TGI (NCI/ADR-RES ovarian): 4.47 µM
